Measured values as given in paper PMC7113773 (Antiviral Research, 2014).

System: NA (H275Y), OSV-resistant mutant of influenza H1N1 (A/California/04/2009)
Type: biochemical, influenza A virus

Cc1cc2c(c(=S)[nH]1)C(=O)O/C2=C\c1c[nH]c2ccc(F)cc12 [Compound 15a, (Z)-1-((5-Fluoro-1H-indol-3-yl)methylene)-6-methyl-4-thioxo-4,5-dihydrofuro[3,4-c]pyridin-3(1H)-one]
function of oseltamivir-resistant NA (H275Y): suppressed
